The test system of series [1] is Influenza A virus. In words: Antiviral activity against Influenza A virus (A/WSN/1933(H1N1)) infected in MDCK cells assessed as inhibition of virus-induced cytopathic effect after 48 hrs by CellTiter96 Aqueous non-radioactive cell proliferation assay. The class given is functional, organism-based.
A short description of series [2]: Cytotoxicity against MDCK cells after 48 hrs by CellTiter96 Aqueous non-radioactive cell proliferation assay. Type of series: cell-based, Canis lupus familiaris. To be noted: dog.
Series [3] in a line: Drug level in rabbit serum treated with (1S,2S,3R,4R)-3-[(S)-1-Acetamido-2-ethylbutyl]-2-[[3-((E)-3-(3,4-dihydroxyphenyl)acryloyloxy)propyl]carbamoyloxy]-4-guanidinocyclopentane-1-carboxylic acid at 37 degC after 24 hrs by HPLC-ESI-MS analysis. Type of series: ADME, cell-free, Oryctolagus cuniculus.
Series [4] addresses Neuraminidase (Influenza A virus (strain A/Wilson-Smith/1933 H1N1) (Influenza A virus(strain A/WS/1933 H1N1)), UniProt P03470).
Series [5] relates to Influenza A virus. The series is described as follows: Antiviral activity against Influenza A virus (A/WSN/1933(H1N1)) infected in BALB/c mouse assessed as mouse survival at 0.96 umol/day, po for 5 consecutive days measured on day 14 post dose. The class given is functional.
The test system of series [6] is Influenza A virus. The series is described as follows: Antiviral activity against Influenza A virus (A/WSN/1933(H1N1)) infected in BALB/c mouse assessed as mouse survival at 0.72 umol/day, po for 5 consecutive days measured on day 14 post dose. The class given is functional, organism-based.
A short description of series [7]: Drug metabolism in rabbit serum assessed as (1S,2S,3R,4R)-3-[(S)-1-acetamido-2-ethylbutyl]-4-guanidino-2-[(3-hydroxypropyl)carbamoyloxy]cyclopentane-1-carboxylic acid formation at 37 degC after 24 hrs by HPLC-ESI-MS analysis. Type of series: ADME, cell-free, Oryctolagus cuniculus.
Series [8] can be described thus: Drug metabolism in rabbit serum assessed as 3-[(1S,2R,3R,5S)-2-[(S)-1-acetamido-2-ethylbutyl]-5-carboxy-3-guanidinocyclopentoxycarbonyl]aminopropan-1-aminium trifluoroacetate formation at 37 degC after 24 hrs by HPLC-ESI-MS analysis. The class given is ADME, cell-free, Oryctolagus cuniculus.
The nature of series [9]: Stability in rabbit serum at 37 degC after 24 hrs by HPLC-ESI-MS analysis. Type of series: ADME, cell-free, Oryctolagus cuniculus.
Series [10] addresses Neuraminidase (Influenza A virus (strain A/Wilson-Smith/1933 H1N1) (Influenza A virus(strain A/WS/1933 H1N1)), UniProt P03470). The source holds these as a separate data set.
The target in series [11] is Neuraminidase (Influenza A virus (A/Memphis/1/1971(H3N2)), UniProt P03471). The class given is cell-based, Influenza A virus (A/Brisbane/10/2007(H3N2)), HEK293.

We go through eight molecules from ChEMBL document CHEMBL4251642 (Eur J Med Chem, 2018).

The EC50 is the concentration giving half of the maximal effect. As a reminder, the CC50 is the concentration at which the toxic effect on the cells reaches its halfway point. The term IC50 denotes the concentration that inhibits the measured activity by half.

The source made the active and inactive calls. The rule behind the calls is not given here.

Neuraminidase (Influenza A virus (strain A/Wilson-Smith/1933 H1N1) (Influenza A virus(strain A/WS/1933 H1N1)), UniProt P03470), sequence (P03470 whole entry): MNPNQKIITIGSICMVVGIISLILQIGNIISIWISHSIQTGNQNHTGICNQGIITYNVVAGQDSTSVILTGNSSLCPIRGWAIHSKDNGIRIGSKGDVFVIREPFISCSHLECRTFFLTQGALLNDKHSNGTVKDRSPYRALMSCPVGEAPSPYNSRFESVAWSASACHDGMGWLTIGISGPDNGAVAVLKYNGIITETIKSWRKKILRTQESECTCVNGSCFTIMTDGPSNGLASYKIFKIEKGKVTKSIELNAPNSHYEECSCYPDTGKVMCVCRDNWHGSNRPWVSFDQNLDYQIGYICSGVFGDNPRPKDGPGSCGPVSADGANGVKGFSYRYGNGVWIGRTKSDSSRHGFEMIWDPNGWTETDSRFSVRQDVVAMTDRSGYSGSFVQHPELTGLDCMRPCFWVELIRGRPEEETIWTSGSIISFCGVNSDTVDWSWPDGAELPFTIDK
Neuraminidase (Influenza A virus (A/Memphis/1/1971(H3N2)), UniProt P03471), sequence (P03471 whole entry): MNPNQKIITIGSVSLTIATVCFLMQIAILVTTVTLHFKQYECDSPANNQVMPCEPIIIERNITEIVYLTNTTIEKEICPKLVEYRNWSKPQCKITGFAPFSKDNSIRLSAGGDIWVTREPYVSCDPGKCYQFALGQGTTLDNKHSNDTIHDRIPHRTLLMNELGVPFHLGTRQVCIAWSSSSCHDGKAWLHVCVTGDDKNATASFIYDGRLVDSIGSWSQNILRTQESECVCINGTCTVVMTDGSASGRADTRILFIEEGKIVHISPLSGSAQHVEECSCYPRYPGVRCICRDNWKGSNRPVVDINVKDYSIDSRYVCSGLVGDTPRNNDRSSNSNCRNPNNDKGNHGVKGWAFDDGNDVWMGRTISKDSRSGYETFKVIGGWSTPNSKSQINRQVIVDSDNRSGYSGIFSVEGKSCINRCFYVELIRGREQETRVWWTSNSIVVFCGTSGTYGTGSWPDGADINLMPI

As to `CCC(CC)[C@H](NC(C)=O)[C@@H]1[C@H](OC(=O)NCCCO)[C@@H](C(=O)O)C[C@H]1NC(=N)N`, the EC50 with Influenza A virus [1] is 2.22 nM. In series [2], the CC50 at 48 h is above 100000 nM. In series [3], this molecule showed a Drug uptake of 26%. Further, the IC50 in [4] was 0.64 nM.

As to `CCC(CC)[C@H](NC(C)=O)[C@@H]1[C@H](OC(=O)NCCCNC(=O)/C=C/c2ccc(O)c(O)c2)[C@@H](C(=O)O)C[C@H]1NC(=N)N`, the EC50 in the series on Influenza A virus [1] is 1.56 nM. The CC50 at 48 h in series [2] is above 100000 nM. For the same molecule, the Survival with Influenza A virus [5] is recorded as 100%. Moreover, the result with Influenza A virus [6] was Active. For the same molecule, the values for the Drug metabolism entry in series [7] and in [8] were “Metabolite_Detected” and “Metabolite_Notdetected”, respectively. Moreover, in series [9], the Stability entry is listed as “Stable”. The IC50 was 0.44 nM in series [4] and 1.8 nM in series [10].

With `CCC(CC)[C@H](NC(C)=O)[C@@H]1[C@H](O)[C@@H](C(=O)O)C[C@H]1NC(=N)N` [PERAMIVIR ANHYDROUS], the EC50 in the series with Influenza A virus [1] is 6.68 nM. The CC50 at 48 h in [2] is above 100000 nM. Further, the IC50 in series [11] worked out at 2 nM; in series [4], 0.48 nM; in [10], 0.4 nM.

Regarding `CCOC(=O)C1=C[C@@H](OC(CC)CC)[C@H](NC(C)=O)[C@@H](N)C1` [OSELTAMIVIR], the outcome with Influenza A virus [5] was Active.

As to `CCC(CC)[C@H](NC(C)=O)[C@@H]1[C@H](OC(=O)NCCCOC(=O)/C=C/c2ccc(O)c(O)c2)[C@@H](C(=O)O)C[C@H]1NC(=N)N`, the concentration giving a half-maximal response (EC50) with Influenza A virus [1] was found to be 1.68 nM. In addition, the CC50 at 48 h in [2] was above 100000 nM. The half-maximal inhibitory concentration (IC50) in [11] is 27.2 nM; in series [4], 1.05 nM; in [10], 0.9 nM. Further, the result with Influenza A virus [6] was Active.

Take `CCC(CC)OC1C=C(C(=O)O)C[C@H](N)[C@H]1NC(C)=O` (some centres undefined): the half-maximal effective concentration (EC50) in the series with Influenza A virus [1] came out at 16.6 nM. The CC50 at 48 h in series [2] was above 100000 nM.

`CCC(CC)[C@H](NC(C)=O)[C@@H]1[C@H](OC(=O)NCCCN)[C@@H](C(=O)O)C[C@H]1NC(=N)N`: the EC50 with Influenza A virus [1] amounted to 2.58 nM. Further, the CC50 at 48 h in series [2] was above 100000 nM. In series [4], the IC50 came to 0.94 nM.

For the molecule `CCC(CC)[C@H](NC(C)=O)[C@@H]1[C@H](OC(=O)NCCCOCCCc2ccc(O)c(O)c2)[C@@H](C(=O)O)C[C@H]1NC(=N)N`, the EC50 in the series on Influenza A virus [1] stood at 3.5 nM. Moreover, in [2], the cytotoxic concentration (CC50) at 48 h was above 100000 nM. The Survival in the series with Influenza A virus [5] is recorded as 50%. The same molecule displayed an IC50 in series [4] of 0.67 nM.
